The text below walks through data of US8258134B2, “Pyridazinone glucokinase activators” (Hoffmann-La Roche Inc., priority 2008, dated 2012).

Molecules are shown by their SMILES.

Assay [1] has as its target T1, Recombinant human liver GK1 (GST-GK) (Homo sapiens, UniProt P35557).
T1 construct: made in house; host or cells: E. coli
T1 sequence (P35557 1-466 isoform P35557-2): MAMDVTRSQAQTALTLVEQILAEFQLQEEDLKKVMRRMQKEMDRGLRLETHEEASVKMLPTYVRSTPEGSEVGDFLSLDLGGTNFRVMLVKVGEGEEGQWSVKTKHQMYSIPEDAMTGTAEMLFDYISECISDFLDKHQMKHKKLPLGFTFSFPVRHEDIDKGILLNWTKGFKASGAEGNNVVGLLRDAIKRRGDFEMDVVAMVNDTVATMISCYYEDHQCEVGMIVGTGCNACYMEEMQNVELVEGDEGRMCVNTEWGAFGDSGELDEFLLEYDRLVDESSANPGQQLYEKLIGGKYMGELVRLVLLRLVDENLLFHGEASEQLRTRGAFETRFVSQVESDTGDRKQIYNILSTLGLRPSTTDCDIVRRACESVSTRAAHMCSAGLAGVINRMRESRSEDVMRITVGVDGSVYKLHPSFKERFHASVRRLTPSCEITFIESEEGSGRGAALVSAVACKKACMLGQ
Description: Glucokinase in vitro assay (G6PDH-coupled NADH generation, OD340). It counts as biochemical. Particulars: 5 mM D-glucose; for SC1.5 average (concentration of activator that produced a 50% increase in the activity of GK): 30° C., pH 7.1, 10% DMSO; for fold activation @ 30 uM: 30 uM test compound. The method, boiled down:
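Activation readout is SC1.5, the activator concentration raising GK rate (OD340/min) 50% above 10% DMSO controls. The coupled reaction used GST-GK1 from E. coli, 5 mM glucose, 1 mM ATP, 1.8 mM NAD and 25 mM Hepes pH 7.1 at 30° C. Enzyme was added after a 10 min compound pre-incubation.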

The subject of assay [2] is Lean C57BL/6J mice. The assay can be described thus: Glucokinase activator in vivo screen, blood glucose in lean mice. The following applies: Mus musculus, vs control at 4 hours post 50 mg/kg oral dose, two hour fast, read-out: % glucose lowering @ 4 H. How it is done: Glucokinase Activator in vivo Screen Protocol in Lean and Diet Induced Obese Mice: Lean or Diet-induced Obese (DIO) C57BL/6J mice were orally dosed via gavage with Glucokinase (GK) activator following a two hour fasting period. Blood glucose determinations were made at various (e.g. 0, 1, 2, 4 and 8 hours post-oral gavage) times during the study.
C57Bl/6J mice were obtained from Jackson Laboratory (Bar Harbor, Me.) and were maintained in a light-dark cycle with lights on from 0600-1800 hr. For studies in lean mice, the mice were received at age ten weeks and given ad libitum access to control diet (LabDiet 5001 chow, PMI Nutrition, Brentwood, Mo.), and were at least age 11 weeks at the time of study. For studies in the DIO model, the mice were received at age five weeks and given ad libitum access to Bio-Serv F3282 High Fat Diet (Frenchtown, N.J.), and were at least age 16 weeks at the time of study. The experiments were conducted during the light phase of the light-dark cycle. Mice (n=6) are weighed and fasted for a two hour period prior to oral treatment. GK activators are formulated in Gelucire vehicle (Ethanol:Gelucire44/14:PEG400q.s. 4:66:30 v/w/v. For studies in lean mice, the mice were dosed orally with 5.0 μL per gram of body weight (i.e. 5 ml/kg×10.0 mg/ml formulation to equal a 50 mg/kg dose). For studies in DIO mice, the mice were dosed orally with 5.0 μL per gram of body weight (i.e. 5.0 ml/kg×5 mg/ml formulation to equal a 25 mg/kg dose). Immediately prior to dosing, a pre-dose (time zero) blood glucose reading was acquired by snipping off a small portion of the animal's tail and collecting 15 μL blood into a heparinized capillary tube for analysis. Following GK activator administration, additional blood glucose readings were taken at various time points post dose from the same tail wound. Results were interpreted by comparing the mean blood glucose values of vehicle treated mice with GK activator treated mice over the study period.
The Table below provides data for % glucose lowering of a representative number of compounds of the present invention vs control at 4 hours post 50 mg/kg dose in lean C57BL/6J mice: […]

Regarding `O=C(Nc1nccs1)C(CC1CCCC1)n1ncc(Oc2ccccc2)cc1=O` (stereo not drawn) [Example 2, 3-Cyclopentyl-2-(6-oxo-4-phenoxy-6H-pyridazin-1-yl)-N-thiazol-2-yl-propionamide], in assay [1], the “SC1.5 average (concentration of activator that produced a 50% increase in the activity of GK)” value came out at 0.206 µM. Further, the change in vivo at 50 mg/kg in assay [2] is -41.9%.

Regarding `CC(C)(O)Cn1ccc(NC(=O)C(CC2CCCC2)n2ncc(OC3CCCC3)cc2=O)n1` (stereo not drawn) [Example 8, 3-Cyclopentyl-2-(4-cyclopentyloxy-6-oxo-6H-pyridazin-1-yl)-N-[1-(2-hydroxy-2-methyl-propyl)-1H-pyrazol-3-yl]-propionamide], the “SC1.5 average (concentration of activator that produced a 50% increase in the activity of GK)” value in assay [1] is 1.323 µM. For the same molecule, the change in vivo at 50 mg/kg in assay [2] was -5.6%.

As for `CC(C)(O)Cn1ccc(NC(=O)C(CC2CCCC2)n2ncc(Oc3ccccc3C(F)(F)F)cc2=O)n1` (stereo not drawn) [Example 11, 3-Cyclopentyl-N-[1-(2-hydroxy-2-methyl-propyl)-1H-pyrazol-3-yl]-2-[6-oxo-4-(2-trifluoromethyl-phenoxy)-6H-pyridazin-1-yl]-propionamide], the “SC1.5 average (concentration of activator that produced a 50% increase in the activity of GK)” value in assay [1] is 0.206 µM. For the same molecule, the change in vivo at 50 mg/kg in assay [2] is -48.9%.

As to `COc1ccccc1Oc1cnn(C(CC2CCCC2)C(=O)Nc2ccn(CC(C)(C)O)n2)c(=O)c1` (stereo not drawn) [Example 12, 3-Cyclopentyl-N-[1-(2-hydroxy-2-methyl-propyl)-1H-pyrazol-3-yl]-2-[4-(2-methoxy-phenoxy)-6-oxo-6H-pyridazin-1-yl]-propionamide], the “SC1.5 average (concentration of activator that produced a 50% increase in the activity of GK)” value in assay [1] stood at 0.117 µM. Moreover, the change in vivo at 50 mg/kg in assay [2] is -49.3%.

On to `Cn1nc(NC(=O)C(CC2CCCC2)n2ncc(Oc3ccccc3C(F)(F)F)cc2=O)cc1Cl` (stereo not drawn) [Example 13, N-(5-Chloro-1-methyl-1H-pyrazol-3-yl)-3-cyclopentyl-2-[6-oxo-4-(2-trifluoromethyl-phenoxy)-6H-pyridazin-1-yl]-propionamide], for which, in assay [1], the “SC1.5 average (concentration of activator that produced a 50% increase in the activity of GK)” value worked out at 0.179 µM. Besides, in assay [2], the change in vivo at 50 mg/kg was -45.8%.

On to `CC(C)CC(C(=O)Nc1ccn(C[C@@H](O)CO)n1)n1ncc(Oc2cccc(C(F)(F)F)c2Cl)cc1=O` (stereo partly drawn) [Example 126, 2-[4-(2-Chloro-3-trifluoromethyl-phenoxy)-6-oxo-6H-pyridazin-1-yl]-4-methyl-pentanoic acid [1-((R)-2,3-dihydroxy-propyl)-1H-pyrazol-3-yl]-amide], for which the “SC1.5 average (concentration of activator that produced a 50% increase in the activity of GK)” value in assay [1] turned out to be 1.221 µM.

`COc1cccc(Oc2cnn(C(CC(C)C)C(=O)Nc3ccn(C[C@@H](O)CO)n3)c(=O)c2)c1Cl` (stereo partly drawn) [Example 127, 2-[4-(2-Chloro-3-methoxy-phenoxy)-6-oxo-6H-pyridazin-1-yl]-4-methyl-pentanoic acid [1-((R)-2,3-dihydroxy-propyl)-1H-pyrazol-3-yl]-amide]: the “SC1.5 average (concentration of activator that produced a 50% increase in the activity of GK)” value in assay [1] came out at 0.334 µM.

For the molecule `O=C(Nc1ccn(C[C@@H](O)CO)n1)C(CC1CCCC1)n1ncc(Oc2ccccc2Cl)cc1=O` (stereo partly drawn) [Example 128, 2-[4-(2-Chloro-phenoxy)-6-oxo-6H-pyridazin-1-yl]-3-cyclopentyl-N-[1-((R)-2,3-dihydroxy-propyl)-1H-pyrazol-3-yl]-propionamide], the “SC1.5 average (concentration of activator that produced a 50% increase in the activity of GK)” value in assay [1] is 0.093 µM.

As to `CC(C)(O)Cn1ccc(NC(=O)C(CC2CCOCC2)n2ncc(Oc3ccccc3Cl)c(Cl)c2=O)n1` (stereo not drawn) [Example 129, 2-[5-Chloro-4-(2-chloro-phenoxy)-6-oxo-6H-pyridazin-1-yl]-N-[1-(2-hydroxy-2-methyl-propyl)-1H-pyrazol-3-yl]-3-(tetrahydro-pyran-4-yl)-propionamide], in assay [1], the “SC1.5 average (concentration of activator that produced a 50% increase in the activity of GK)” value worked out at 1.006 µM.

For the molecule `CC(C)(O)Cn1ccc(NC(=O)C(CC2CCCCC2)n2ncc(Oc3ccc(OC(F)(F)F)cc3Cl)c(Cl)c2=O)n1` (stereo not drawn) [Example 130, 2-[5-Chloro-4-(2-chloro-4-trifluoromethoxy-phenoxy)-6-oxo-6H-pyridazin-1-yl]-3-cyclohexyl-N-[1-(2-hydroxy-2-methyl-propyl)-1H-pyrazol-3-yl]-propionamide], the “SC1.5 average (concentration of activator that produced a 50% increase in the activity of GK)” value in assay [1] worked out at 10.224 µM.

Regarding `CC(=O)OC(C)Cn1nc(NC(=O)C(CC2CCOCC2)n2ncc(Oc3c(F)cccc3F)cc2=O)cc1C` (stereo not drawn) [Example 131, Acetic acid 2-{3-[2-[4-(2,6-difluoro-phenoxy)-6-oxo-6H-pyridazin-1-yl]-3-(tetrahydro-pyran-4-yl)-propionylamino]-5-methyl-pyrazol-1-yl}-1-methyl-ethyl ester], in assay [1], the “fold activation @ 30 uM” value is given as 1.18 fold and the “SC1.5 average (concentration of activator that produced a 50% increase in the activity of GK)” value was over 30 µM.

Consider `Cc1cc(NC(=O)C(CC2CCOCC2)n2ncc(Oc3c(F)cccc3F)cc2=O)nn1CC(C)O` (stereo not drawn) [Example 132, 2-[4-(2,6-Difluoro-phenoxy)-6-oxo-6H-pyridazin-1-yl]-N-[1-(2-hydroxy-propyl)-5-methyl-1H-pyrazol-3-yl]-3-(tetrahydro-pyran-4-yl)-propionamide], for which, in assay [1], the “fold activation @ 30 uM” value is given as 1.18 fold and the “SC1.5 average (concentration of activator that produced a 50% increase in the activity of GK)” value is over 30 µM.

For `CC(C)(O)Cn1ccc(NC(=O)C(CC2CCCCC2)n2ncc(Oc3cccc4c3OCCO4)cc2=O)n1` (stereo not drawn) [Example 133, 3-Cyclohexyl-2-[4-(2,3-dihydro-benzo[1,4]dioxin-5-yloxy)-6-oxo-6H-pyridazin-1-yl]-N-[1-(2-hydroxy-2-methyl-propyl)-1H-pyrazol-3-yl]-propionamide], the “SC1.5 average (concentration of activator that produced a 50% increase in the activity of GK)” value in assay [1] came to 0.135 µM.

As for `CC(C)CC(C(=O)Nc1ccn(CC(C)(C)O)n1)n1ncc(Oc2ccccc2Cl)cc1=O` (stereo not drawn) [Example 134, 2-[4-(2-Chloro-phenoxy)-6-oxo-6H-pyridazin-1-yl]-4-methyl-pentanoic acid [1-(2-hydroxy-2-methyl-propyl)-1H-pyrazol-3-yl]-amide], the “SC1.5 average (concentration of activator that produced a 50% increase in the activity of GK)” value in assay [1] worked out at 0.693 µM.

With `CC(C)(O)Cn1ccc(NC(=O)C(CC2CCOCC2)n2ncc(Oc3ccccc3Cl)cc2=O)n1` (stereo not drawn) [Example 135, 2-[4-(2-Chloro-phenoxy)-6-oxo-6H-pyridazin-1-yl]-N-[1-(2-hydroxy-2-methyl-propyl)-1H-pyrazol-3-yl]-3-(tetrahydro-pyran-4-yl)-propionamide], the “SC1.5 average (concentration of activator that produced a 50% increase in the activity of GK)” value in assay [1] was 0.235 µM.

In the case of `CC(C)(O)Cn1ccc(NC(=O)C(CC2CCCCC2)n2ncc(Oc3ccccc3)c(Cl)c2=O)n1` (stereo not drawn) [Example 136, 2-(5-Chloro-6-oxo-4-phenoxy-6H-pyridazin-1-yl)-3-cyclohexyl-N-[1-(2-hydroxy-2-methyl-propyl)-1H-pyrazol-3-yl]-propionamide], the “SC1.5 average (concentration of activator that produced a 50% increase in the activity of GK)” value in assay [1] amounted to 1.17 µM.

Turning to `CC(C)CC(C(=O)Nc1ccn(C[C@@H](O)CO)n1)n1ncc(Oc2ccccc2Cl)cc1=O` (stereo partly drawn) [Example 137, 2-[4-(2-Chloro-phenoxy)-6-oxo-6H-pyridazin-1-yl]-4-methyl-pentanoic acid [1-((R)-2,3-dihydroxy-propyl)-1H-pyrazol-3-yl]-amide], the “SC1.5 average (concentration of activator that produced a 50% increase in the activity of GK)” value in assay [1] is 0.731 µM.
